This passage reports Ki results from patent publication US8450313B2, “2,3-diaryl- or heteroaryl-substituted 1,1,1-trifluoro-2-hydroxypropyl compounds” (Hoffmann-La Roche Inc., priority 2009, dated 2013).

Molecules are shown by their SMILES.

This assay deals with T1, full length human recombinant glucocorticoid receptor (Homo sapiens, UniProt P04150).
T1 construct: It contains some partially purified full length human recombinant glucocorticoid receptor; purchased Panvera/Invitrogen PV4302
T1 sequence (P04150 1-777): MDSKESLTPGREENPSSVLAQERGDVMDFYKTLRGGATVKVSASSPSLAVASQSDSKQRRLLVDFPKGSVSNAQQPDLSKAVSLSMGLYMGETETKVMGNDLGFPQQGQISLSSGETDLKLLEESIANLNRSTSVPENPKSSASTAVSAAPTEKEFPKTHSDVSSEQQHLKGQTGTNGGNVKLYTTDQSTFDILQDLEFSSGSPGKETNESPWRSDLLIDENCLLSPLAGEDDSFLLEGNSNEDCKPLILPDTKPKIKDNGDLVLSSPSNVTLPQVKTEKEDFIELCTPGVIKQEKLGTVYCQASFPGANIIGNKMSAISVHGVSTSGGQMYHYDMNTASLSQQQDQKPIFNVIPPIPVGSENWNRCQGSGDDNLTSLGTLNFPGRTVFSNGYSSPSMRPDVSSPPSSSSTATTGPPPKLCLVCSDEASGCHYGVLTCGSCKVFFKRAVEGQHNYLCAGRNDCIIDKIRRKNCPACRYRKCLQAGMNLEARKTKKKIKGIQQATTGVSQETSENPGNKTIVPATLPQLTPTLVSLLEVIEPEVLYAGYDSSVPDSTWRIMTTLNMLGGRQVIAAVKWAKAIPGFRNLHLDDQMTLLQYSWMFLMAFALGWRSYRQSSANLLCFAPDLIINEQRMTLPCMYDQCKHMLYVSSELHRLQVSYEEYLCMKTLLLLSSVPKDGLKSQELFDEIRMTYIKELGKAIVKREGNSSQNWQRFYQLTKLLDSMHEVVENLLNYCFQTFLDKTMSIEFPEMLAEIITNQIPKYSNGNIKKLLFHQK
Put plainly: Glucocorticoid Receptor Binding Assay (Glucocorticoid Receptor Competitor Assay far red kit, fluorescence polarization). The settings on record: competition with fluorescent GR ligand Fluormone GS Far Red, 3 hours at 22° C., pH 7.4; Ki calculated from IC50 by Cheng-Prusoff. The method in brief: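 Fluorescence polarization competition with partially purified full-length human recombinant GR, stabilizing peptide and Fluormone GS Far Red tracer in screening buffer pH 7.4; 3 hours at 22° C in the dark, read at 610–660 nm. IC50 from sigmoidal fit; Ki by Cheng-Prusoff.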

Consider `Cc1cc([C@@](O)([C@@H](C)c2ccc(Oc3ccc(C(=O)O)c(Cl)c3)cc2Cl)C(F)(F)F)cc(C)c1C#N` (relative stereo) [Example 144, 2-Chloro-4-{3-chloro-4-[2-(4-cyano-3,5-dimethyl-phenyl)-3,3,3-trifluoro-2-hydroxy-1-methyl-propyl]-phenoxy}-benzoic acid], for which the Ki was 2.5 nM.

Consider `COC(=O)c1cnc(Oc2ccc([C@@H](C)[C@@](O)(c3ccc4c(c3)N(C)C(=O)CO4)C(F)(F)F)c(Cl)c2)cc1Cl` (racemic) [Example 210, 4-Chloro-6-{3-chloro-4-[3,3,3-trifluoro-2-hydroxy-1-methyl-2-(4-methyl-3-oxo-3,4-dihydro-2H-benzo[1,4]oxazin-6-yl)-propyl]-phenoxy}-nicotinic acid methyl ester], for which the inhibition constant (Ki) is 1.5 nM.

Take `C[C@H](c1ccc(Oc2ccc(C(=O)O)c(Cl)n2)cc1Cl)[C@@](O)(c1ccc2c(c1)N(C)C(=O)CO2)C(F)(F)F` (racemic) [Example 63, 2-Chloro-6-{3-chloro-4-[3,3,3-trifluoro-2-hydroxy-1-methyl-2-(4-methyl-3-oxo-3,4-dihydro-2H-benzo[1,4]oxazin-6-yl)-propyl]-phenoxy}-nicotinic acid]: the inhibition constant Ki is 0.8 nM. Take `C[C@H](c1ccc(OC(C)(C)C(=O)O)cc1Cl)[C@@](O)(c1ccc2oc(=O)n(C)c2c1)C(F)(F)F` (stereo in doubt) [Example 230, 2-{3-Chloro-4-[3,3,3-trifluoro-2-hydroxy-1-methyl-2-(3-methyl-2-oxo-2,3-dihydro-benzooxazol-5-yl)-propyl]-phenoxy}-2-methyl-propionic acid]: the Ki is 35.3 nM.

Take `CC(c1ccc(-c2ccc(OCC(=O)O)cc2)cc1Cl)C(O)(c1ccc2c(c1)n(C)c(=O)n2C)C(F)(F)F` (stereo not drawn) [Example 75, {3′-Chloro-4′-[2-(1,3-dimethyl-2-oxo-2,3-dihydro-1H-benzoimidazol-5-yl)-3,3,3-trifluoro-2-hydroxy-1-methyl-propyl]-biphenyl-4-yloxy}-acetic acid]: the Ki is 1.9 nM. `CCN1C(=O)COc2ccc([C@](O)([C@H](C)c3ccc(-c4ccc(C(=O)O)c(F)c4)cc3Cl)C(F)(F)F)cc21` (relative stereo) [Example 65, 3′-Chloro-4′-[2-(4-ethyl-3-oxo-3,4-dihydro-2H-benzo[1,4]oxazin-6-yl)-3,3,3-trifluoro-2-hydroxy-1-methyl-propyl]-3-fluoro-biphenyl-4-carboxylic acid]: the Ki is 128 nM. Next, `COC(=O)c1ccc(-c2ccc([C@@H](C)[C@@](O)(c3ccc4oc(=O)n(C)c4c3)C(F)(F)F)c(Cl)c2)c(F)c1` (relative stereo) [Example 125, 3′-Chloro-2-fluoro-4′-[3,3,3-trifluoro-2-hydroxy-1-methyl-2-(3-methyl-2-oxo-2,3-dihydro-benzooxazol-5-yl)-propyl]-biphenyl-4-carboxylic acid methyl ester]: 1 nM; `C[C@H](c1ccc(-c2ccc(C(=O)O)c(Cl)c2)cc1Cl)[C@@](O)(c1ccc2c(c1)n(C)c(=O)n2C)C(F)(F)F` (stereo in doubt) [Example 76, 3,3′-Dichloro-4′-[2-(1,3-dimethyl-2-oxo-2,3-dihydro-1H-benzoimidazol-5-yl)-3,3,3-trifluoro-2-hydroxy-1-methyl-propyl]-biphenyl-4-carboxylic acid]: 1 nM; `CCOC(=O)C1CCN(c2ccc([C@H](C)[C@](O)(c3ccc4c(c3)N(C)C(=O)CO4)C(F)(F)F)c(Cl)c2)CC1` (stereo in doubt) [Example 42, 1-{3-Chloro-4-[3,3,3-trifluoro-2-hydroxy-1-methyl-2-(4-methyl-3-oxo-3,4-dihydro-2H-benzo[1,4]oxazin-6-yl)-propyl]-phenyl}-piperidine-4-carboxylic acid ethyl ester]: 4 nM. Next, `C[C@@H](c1ccc(Oc2ccc(C(=O)O)c(Cl)c2)cc1Cl)[C@](O)(c1ccc2c(c1)N(C)C(=O)CO2)C(F)(F)F` [Example 219, 2-Chloro-4-{3-chloro-4-[(1S,2S)-3,3,3-trifluoro-2-hydroxy-1-methyl-2-(4-methyl-3-oxo-3,4-dihydro-2H-benzo[1,4]oxazin-6-yl)-propyl]-phenoxy}-benzoic acid]: 0.8 nM; `C[C@H](c1ccc(C(=O)NCC(=O)O)cc1Cl)[C@@](O)(c1ccc2oc(=O)n(C)c2c1)C(F)(F)F` (stereo in doubt) [Example 232, {3-Chloro-4-[3,3,3-trifluoro-2-hydroxy-1-methyl-2-(3-methyl-2-oxo-2,3-dihydrobenzooxazol-5-yl)-propyl]-benzoylamino}-acetic acid]: 92.4 nM; `C[C@H](c1ccc(-c2ccc(C(=O)O)cc2)cc1Cl)[C@@](O)(c1ccc2c(c1)n(C)c(=O)n2C)C(F)(F)F` (stereo in doubt) [Example 77, 3′-Chloro-4′-[2-(1,3-dimethyl-2-oxo-2,3-dihydro-1H-benzoimidazol-5-yl)-3,3,3-trifluoro-2-hydroxy-1-methyl-propyl]-biphenyl-4-carboxylic acid]: 2.4 nM. On to `C[C@H](c1ccc(Oc2ncccc2C(=O)O)cc1Cl)[C@@](O)(c1ccc2c(c1)n(C)c(=O)n2C)C(F)(F)F` (stereo in doubt) [Example 105, 2-{3-Chloro-4-[2-(1,3-dimethyl-2-oxo-2,3-dihydro-1H-benzoimidazol-5-yl)-3,3,3-trifluoro-2-hydroxy-1-methyl-propyl]-phenoxy}-nicotinic acid], for which the inhibition constant (Ki) was 14.8 nM. Next, `C[C@@H](c1cc(Oc2ccc(F)c(C(=O)O)c2)ccc1Cl)[C@](O)(c1ccc2c(c1)N(C)C(=O)CO2)C(F)(F)F` (relative stereo) [Example 11, 5-{4-Chloro-3-[3,3,3-trifluoro-2-hydroxy-1-methyl-2-(4-methyl-3-oxo-3,4-dihydro-2H-benzo[1,4]oxazin-6-yl)-propyl]-phenoxy}-2-fluoro-benzoic acid]: 2.4 nM.

Turning to `C[C@H](c1ccc(Oc2ncc(Cl)cc2C(=O)O)cc1Cl)[C@@](O)(c1ccc2c(c1)n(C)c(=O)n2C)C(F)(F)F` (stereo in doubt) [Example 104, 5-Chloro-2-{3-chloro-4-[2-(1,3-dimethyl-2-oxo-2,3-dihydro-1H-benzoimidazol-5-yl)-3,3,3-trifluoro-2-hydroxy-1-methyl-propyl]-phenoxy}-nicotinic acid], the inhibitory constant (Ki) is 1.6 nM. Take `CC(c1ccc(Oc2ccc(C(=O)O)cc2Cl)cc1Cl)C(O)(c1ccc2c(c1)n(C)c(=O)n2C)C(F)(F)F` (stereo not drawn) [Example 87, 3-Chloro-4-{3-chloro-4-[2-(1,3-dimethyl-2-oxo-2,3-dihydro-1H-benzoimidazol-5-yl)-3,3,3-trifluoro-2-hydroxy-1-methyl-propyl]-phenoxy}-benzoic acid]: the inhibitory constant (Ki) was 3.7 nM. Next, `C[C@H](c1ccc(-c2ccc(C(=O)O)c(F)c2)cc1Cl)[C@@](O)(c1ccc2oc(=O)n(C)c2c1)C(F)(F)F` [Example 120, 3′-Chloro-3-fluoro-4′-[(1R,2R)-3,3,3-trifluoro-2-hydroxy-1-methyl-2-(3-methyl-2-oxo-2,3-dihydro-benzooxazol-5-yl)-propyl]-biphenyl-4-carboxylic acid]: 46 nM; `COC(=O)c1ccc(-c2ccc([C@@H](C)[C@@](O)(c3ccc4oc(=O)n(C)c4c3)C(F)(F)F)c(Cl)c2)nc1` (stereo in doubt) [Example 127, 6-{3-Chloro-4-[3,3,3-trifluoro-2-hydroxy-1-methyl-2-(3-methyl-2-oxo-2,3-dihydro-benzooxazol-5-yl)-propyl]-phenyl}-nicotinic acid methyl ester]: 0.7 nM. Regarding `C[C@H](c1ccc(-c2ccc(F)c(C(=O)O)c2)cc1Cl)[C@@](O)(c1ccc2c(c1)n(C)c(=O)n2C)C(F)(F)F` (stereo in doubt) [Example 74, 3′-Chloro-4′-[2-(1,3-dimethyl-2-oxo-2,3-dihydro-1H-benzoimidazol-5-yl)-3,3,3-trifluoro-2-hydroxy-1-methyl-propyl]-4-fluoro-biphenyl-3-carboxylic acid], the Ki is 1.7 nM. For `CCOC(=O)c1ccc(Oc2ccc([C@@H](C)[C@@](O)(c3ccc4c(c3)N(C)C(=O)CO4)C(F)(F)F)c(Cl)c2)nc1C(F)(F)F` (racemic) [Example 214, 6-{3-Chloro-4-[3,3,3-trifluoro-2-hydroxy-1-methyl-2-(4-methyl-3-oxo-3,4-dihydro-2H-benzo[1,4]oxazin-6-yl)-propyl]-phenoxy}-2-trifluoromethyl-nicotinic acid ethyl ester], the inhibitory constant (Ki) is 4.1 nM. For `C[C@H](c1ccc(-c2ccc(C(=O)O)cc2Cl)cc1Cl)[C@@](O)(c1ccc2c(c1)n(C)c(=O)n2C)C(F)(F)F` (stereo in doubt) [Example 81, 2,3′-Dichloro-4′-[2-(1,3-dimethyl-2-oxo-2,3-dihydro-1H-benzoimidazol-5-yl)-3,3,3-trifluoro-2-hydroxy-1-methyl-propyl]-biphenyl-4-carboxylic acid], the Ki was 1.4 nM.

Broadly, the Ki is a measure of affinity in units of concentration, obtained from inhibition or displacement.
